Values of other authors as cited in patent US20100273749A1, “Method for Treating Dry-Eye Syndrome” (priority 2006, published 2010).

Tested on: ACAT
Details: several animal studies, nonselective ACAT inhibitors

| Compound | reduction of atherosclerotic plaques |
| --- | --- |
| CC(C)c1cc(C(C)C)c(CC(=O)NS(=O)(=O)Oc2c(C(C)C)cccc2C(C)C)c(C(C)C)c1 [avasimibe] | promising reduction of atherosclerotic plaques |
| CCCCCCCCN1CCc2c(C)c(CC(=O)O)c(C)c(NC(=O)C(C)(C)C)c21 [pactimibe] | promising reduction of atherosclerotic plaques |
